Measured values as given in US10010525B2, “Methods of inducing anesthesia” (The Regents of the University of California, priority 2012, dated 2018).

How the values were obtained:
[1] = target: T1, NMDA (NR1/NR2A) receptors (Rattus norvegicus, UniProt P35439+Q00959); test: NMDA receptor two-electrode voltage clamp in oocytes at saturated drug concentration; type: cell-based; conditions: for NMDA % Direct Effect: drug response without receptor agonist; for NMDA % Direct Effect / NMDA % Agonist Effect: percent of control agonist peak, mean ±SEM, 5-6 oocytes, saturated drug; for NMDA % Agonist Effect: drug with glutamate and glycine; for NMDA Drug Response: drug+agonist versus control agonist peak; for NMDA receptor modulation (in words): saturating aqueous concentration
T1 construct: expressed in transfected cells; host or cells: Xenopus laevis oocytes (RNA injection, 1:1)
From the text: (§1) GABAA (α1β2γ2s) or NMDA (NR1/NR2A) receptors were expressed in oocytes and studied using standard two-electrode voltage clamp techniques. Hydrocarbons from 14 different organic functional groups were studied at saturated concentrations, and compounds within each group differed only by the carbon number at the ω-position or within a saturated ring. An effect on GABAA or NMDA receptors was defined as a 10% or greater reversible current change from baseline that was statistically different from zero.
(§2) An ovary from tricaine-anesthetized Xenopus laevis frogs was surgically removed using a protocol approved by the Institutional Animal Care and Use Committee at the University of California, Davis. Following manual disruption of the ovarian lobule septae, the ovary was incubated in 0.2% Type I collagenase (Worthington Biochemical, Lakewood, N.J.) to defolliculate oocytes which were washed and stored in fresh and filtered modified Barth's solution composed of 88 mM NaCl, 1 mM KCl, 2.4 mM NaHCO3, 20 mM HEPES, 0.82 mM MgSO4, 0.33 mM Ca(NO3)2, 0.41 mM CaCl2, 5 mM sodium pyruvate, gentamycin, penicillin, streptomycin, and corrected to pH=7.4. All salts and antibiotics were A.C.S. grade (Fisher Scientific, Pittsburgh, Pa.).
(§3) Clones used were provided as a gift from Dr. R. A. Harris (University of Texas, Austin) and were sequenced and compared to references in the National Center for Biotechnology Information database to confirm the identity of each gene. GABAA receptors were expressed using clones for the human GABAA α1 and the rat GABAA β2 and γ2s subunits in pCIS-II vectors. […] In separate oocytes, glutamate receptors were expressed using rat NMDA NR1 clones in a pCDNA3 vector and rat NMDA NR2A clones in a Bluescript vector. RNA encoding each subunit was prepared using a commercial transcription kit (T7 mMessage mMachine, Ambion, Austin, Tex.) was mixed in a 1:1 ratio, and 1-10 ng of total RNA was injected into oocytes and studied 1-2 days later.
Briefly, baseline perfusion solutions were the same as for GABAA with the substitution of equimolar BaCl2 for calcium salts and the addition of 0.1 mM EGTA; this constituted barium frog Ringer's solution (BaFR). Agonist solutions for NMDA studies also contained 0.1 mM glutamate (E) and 0.01 mM glycine (G) to constitute a BaFREG solution.
The syringe pump and perfusion chamber apparatus as well as the clamp holding potential and baseline-agonist exposure protocols were identical to that described for the GABAA studies. The same test compounds, concentrations, and preparative methods were used in NMDA voltage clamp studies as in the GABAA voltage clamp studies (Table 2).
(§4) Modulating drug responses were calculated as the percent of the control (baseline) peak as follows: 100·ID/IB, where ID and IB were the peak currents measured during agonist+drug and agonist baseline perfusions, respectively. When present, direct receptor activation by a drug was similarly calculated as a percent of the agonist response. […] A lack of receptor response (cut-off) was defined as a<10% change from baseline current that was statistically indistinguishable from zero using a two-tailed Student t-test.

[2] = target: T2, GABAA (α1β2γ2s) receptors (UniProt P14867+P18508+P63138); test: GABAA receptor two-electrode voltage clamp in oocytes at saturated drug concentration; type: cell-based, human α1, rat β2 and γ2s; conditions: for GABAA % Direct Effect: drug response without receptor agonist; for GABAA % Direct Effect / GABAA % Agonist Effect: percent of control agonist peak, mean ±SEM, 5-6 oocytes, saturated drug; for GABAA % Agonist Effect: drug with γ-aminobutyric acid; for GABAA Drug Response: drug+agonist versus control agonist peak
T2 construct: expressed in transfected cells; host or cells: Xenopus laevis oocytes (intranuclear plasmid injection, α1:β2:γ2 = 1:1:10)
From the text: as §1, §2, §3
Oocytes were studied in a 250 μL linear-flow perfusion chamber with solutions administered by syringe pump at 1.5 ml/min with gastight glass syringes and Teflon tubing. Oocyte GABAA currents were studied using standard two-electrode voltage clamping techniques at a holding potential of […] using a 250 μL channel linear-flow perfusion chamber with solutions administered by syringe pump at 1.5 mL/min.
After FR perfusion for 5 min, oocytes were exposed to 30 sec FR-GABA followed by another 5 min FR washout; this was repeated until stable GABAA-elicited peaks were obtained. Next, FR containing a saturated solution of the study drug (Table 2)—or for gaseous study compounds a vapor pressure equal to 90% of barometric pressure with balance oxygen—was used to perfuse the oocyte chamber for 2 min followed by perfusion with a FR-GABA solution containing the identical drug concentration for 30 sec.
as §4

T2 sequence (P14867 28-456): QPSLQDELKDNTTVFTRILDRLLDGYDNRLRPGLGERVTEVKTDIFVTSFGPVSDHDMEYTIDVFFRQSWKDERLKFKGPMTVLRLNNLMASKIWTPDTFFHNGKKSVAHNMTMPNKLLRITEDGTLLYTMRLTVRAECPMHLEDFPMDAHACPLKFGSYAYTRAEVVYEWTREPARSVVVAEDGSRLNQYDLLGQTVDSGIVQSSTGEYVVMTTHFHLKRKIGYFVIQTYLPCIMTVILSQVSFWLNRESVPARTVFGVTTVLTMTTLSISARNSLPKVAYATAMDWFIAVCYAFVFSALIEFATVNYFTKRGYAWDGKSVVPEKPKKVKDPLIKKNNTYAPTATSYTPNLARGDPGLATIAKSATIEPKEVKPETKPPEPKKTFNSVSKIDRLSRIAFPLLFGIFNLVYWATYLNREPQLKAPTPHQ
T2 sequence (P63138 25-474 limits assumed): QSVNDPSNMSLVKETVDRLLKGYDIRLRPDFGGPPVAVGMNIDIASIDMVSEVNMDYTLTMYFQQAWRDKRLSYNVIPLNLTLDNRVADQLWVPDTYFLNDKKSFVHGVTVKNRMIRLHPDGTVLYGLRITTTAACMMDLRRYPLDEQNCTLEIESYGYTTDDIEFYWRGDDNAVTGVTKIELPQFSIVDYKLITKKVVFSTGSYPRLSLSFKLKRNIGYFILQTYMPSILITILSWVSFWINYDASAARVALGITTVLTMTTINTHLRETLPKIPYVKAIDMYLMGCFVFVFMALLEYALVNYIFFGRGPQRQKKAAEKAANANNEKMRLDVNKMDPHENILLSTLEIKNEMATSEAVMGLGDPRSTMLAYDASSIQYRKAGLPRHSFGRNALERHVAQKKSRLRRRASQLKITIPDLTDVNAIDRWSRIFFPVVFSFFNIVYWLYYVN
T2 sequence (P18508 39-466): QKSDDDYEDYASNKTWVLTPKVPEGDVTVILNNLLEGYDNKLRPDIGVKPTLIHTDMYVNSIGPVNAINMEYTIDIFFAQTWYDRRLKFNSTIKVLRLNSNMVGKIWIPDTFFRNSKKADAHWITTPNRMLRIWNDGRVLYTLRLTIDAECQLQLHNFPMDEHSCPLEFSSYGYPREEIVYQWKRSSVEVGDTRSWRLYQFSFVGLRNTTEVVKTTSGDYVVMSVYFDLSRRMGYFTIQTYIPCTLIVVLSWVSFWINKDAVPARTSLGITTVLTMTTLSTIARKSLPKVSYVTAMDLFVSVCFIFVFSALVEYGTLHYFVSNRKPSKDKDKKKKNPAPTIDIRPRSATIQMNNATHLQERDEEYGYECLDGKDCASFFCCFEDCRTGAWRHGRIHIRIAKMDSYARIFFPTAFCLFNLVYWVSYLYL
T1 sequence (Q00959 23-1464, other chains not shown): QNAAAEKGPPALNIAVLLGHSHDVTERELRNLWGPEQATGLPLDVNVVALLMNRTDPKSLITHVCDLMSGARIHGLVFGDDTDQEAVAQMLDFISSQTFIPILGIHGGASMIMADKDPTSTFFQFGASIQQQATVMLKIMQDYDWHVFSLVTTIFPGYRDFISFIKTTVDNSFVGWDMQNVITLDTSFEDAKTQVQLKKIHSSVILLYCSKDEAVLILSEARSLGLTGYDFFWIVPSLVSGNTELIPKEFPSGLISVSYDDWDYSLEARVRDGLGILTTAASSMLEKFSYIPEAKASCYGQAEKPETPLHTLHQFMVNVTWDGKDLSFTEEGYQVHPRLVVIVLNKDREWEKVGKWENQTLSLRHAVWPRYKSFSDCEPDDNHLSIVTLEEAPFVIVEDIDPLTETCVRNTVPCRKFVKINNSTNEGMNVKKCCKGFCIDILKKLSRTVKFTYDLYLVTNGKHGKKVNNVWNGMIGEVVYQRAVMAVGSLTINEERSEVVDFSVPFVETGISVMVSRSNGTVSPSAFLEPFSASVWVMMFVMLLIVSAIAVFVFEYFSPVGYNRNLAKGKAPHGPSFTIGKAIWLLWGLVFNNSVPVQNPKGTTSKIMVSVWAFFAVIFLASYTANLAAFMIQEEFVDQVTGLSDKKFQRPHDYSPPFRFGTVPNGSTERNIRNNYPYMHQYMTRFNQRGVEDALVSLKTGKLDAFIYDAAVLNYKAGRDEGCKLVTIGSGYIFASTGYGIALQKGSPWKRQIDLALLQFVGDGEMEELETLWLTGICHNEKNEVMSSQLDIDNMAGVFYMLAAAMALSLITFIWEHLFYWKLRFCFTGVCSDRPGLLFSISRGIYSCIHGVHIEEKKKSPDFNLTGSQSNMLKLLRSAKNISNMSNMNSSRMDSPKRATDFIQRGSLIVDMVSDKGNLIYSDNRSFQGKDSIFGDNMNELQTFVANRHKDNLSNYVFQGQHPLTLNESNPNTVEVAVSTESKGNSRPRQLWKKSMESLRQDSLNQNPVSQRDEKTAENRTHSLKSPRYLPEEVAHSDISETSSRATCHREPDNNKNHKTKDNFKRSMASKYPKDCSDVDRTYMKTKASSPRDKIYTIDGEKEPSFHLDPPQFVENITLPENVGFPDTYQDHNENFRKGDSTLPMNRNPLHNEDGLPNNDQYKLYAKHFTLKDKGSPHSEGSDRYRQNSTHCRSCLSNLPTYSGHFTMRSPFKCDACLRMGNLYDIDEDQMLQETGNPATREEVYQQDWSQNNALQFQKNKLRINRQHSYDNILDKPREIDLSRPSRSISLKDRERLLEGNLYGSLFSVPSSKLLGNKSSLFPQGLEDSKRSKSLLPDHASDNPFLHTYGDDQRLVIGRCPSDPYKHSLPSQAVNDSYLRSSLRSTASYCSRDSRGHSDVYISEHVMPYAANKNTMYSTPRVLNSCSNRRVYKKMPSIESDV

SMILES	NMDA % Direct Effect [1]	NMDA % Agonist Effect [1] [%]	NMDA Drug Response [1]	GABAA % Direct Effect [2]	GABAA % Agonist Effect [2] [%]	GABAA Drug Response [2]	NMDA receptor modulation (in words) [1]	NMDA receptor current inhibition ([1]; hydrocarbons prior to the cut-off, saturated) [%]	NMDA receptor modulation (in words) ([1]; listed as n-butane)	GABAA receptor modulation (in words) ([2]; saturating aqueous concentration)
CCCCCCF [1-fluorohexane]	none	101 ± 1	0 (no response (0) for drug+agonist responses that differ by <10% from the control agonist peak)	11 ± 4%	207 ± 13	+ (potentiation (+) for drug+agonist responses greater than the control agonist peak)				
CCCCCF [1-fluoropentane]	none	76 ± 2		none	539 ± 35	+ (potentiation (+) for drug+agonist responses greater than the control agonist peak)				
C#CCCCCC [1-heptyne]	none	68 ± 10		none	172 ± 8	+ (potentiation (+) for drug+agonist responses greater than the control agonist peak)				
CCCCCCS [1-hexanethiol]	none	102 ± 3	0 (no response (0) for drug+agonist responses that differ by <10% from the control agonist peak)	8 ± 2%	290 ± 41	+ (potentiation (+) for drug+agonist responses greater than the control agonist peak)	did not			
C=CCCCC [1-hexene]	none	97 ± 0	0 (no response (0) for drug+agonist responses that differ by <10% from the control agonist peak)	none	132 ± 2	+ (potentiation (+) for drug+agonist responses greater than the control agonist peak)				
C#CCCCC [1-hexyne]	none	41 ± 6		5 ± 2%	418 ± 21	+ (potentiation (+) for drug+agonist responses greater than the control agonist peak)				
CCCCCCCCCCCCCCCCCCN [1-octadecanamine]	none	73 ± 4		none	146 ± 5	+ (potentiation (+) for drug+agonist responses greater than the control agonist peak)				
C#CCCCCCC [1-octyne]	none	96 ± 2	0 (no response (0) for drug+agonist responses that differ by <10% from the control agonist peak)	none	259 ± 11	+ (potentiation (+) for drug+agonist responses greater than the control agonist peak)				
CCCCCS [1-pentanethiol]	none	85 ± 4		22 ± 8%	466 ± 57	+ (potentiation (+) for drug+agonist responses greater than the control agonist peak)	inhibited NMDA receptors	15		
C=CCCC [1-pentene]	none	69 ± 1		2 ± 3%	453 ± 38	+ (potentiation (+) for drug+agonist responses greater than the control agonist peak)				
CCCCCCCCCCCO [1-undecanol]	none	101 ± 2	0 (no response (0) for drug+agonist responses that differ by <10% from the control agonist peak)	none	181 ± 13	+ (potentiation (+) for drug+agonist responses greater than the control agonist peak)				
CCCCCCCCC(C)=O [2-decanone]	none	81 ± 1		none	476 ± 52	+ (potentiation (+) for drug+agonist responses greater than the control agonist peak)				
CCCCCCCCCCC(C)=O [2-dodecanone]	none	97 ± 3	0 (no response (0) for drug+agonist responses that differ by <10% from the control agonist peak)	none	325 ± 30	+ (potentiation (+) for drug+agonist responses greater than the control agonist peak)				
CCCCCCCCCC(C)=O [2-undecanone]	none	98 ± 2	0 (no response (0) for drug+agonist responses that differ by <10% from the control agonist peak)	none	230 ± 16	+ (potentiation (+) for drug+agonist responses greater than the control agonist peak)				
CCCC [butane]	none	7 ± 2		none	623 ± 68	+ (potentiation (+) for drug+agonist responses greater than the control agonist peak)	negatively modulates		almost completely inhibited NMDA receptor currents	positively modulate
C1CCCCC1 [cyclohexane]	none	101 ± 2	0 (no response (0) for drug+agonist responses that differ by <10% from the control agonist peak)	none	421 ± 17	+ (potentiation (+) for drug+agonist responses greater than the control agonist peak)				
